Data taken from patent US20140288071A1, “INHIBITORS OF NOTUM […] AND METHODS OF THEIR USE” (priority 2011, published 2014).

Key:
[1] = molecular target: T1, human notum pectinacetyltransferase (Homo sapiens, UniProt Q6P988); assay: Reporter assay (CellSensor LEF/TCF-bla FreeStyle 293F cells, Wnt3a and notum conditioned media); type: cell-based
T1 construct: made in house; conditioned medium used
T1 sequence (Q6P988 20-496): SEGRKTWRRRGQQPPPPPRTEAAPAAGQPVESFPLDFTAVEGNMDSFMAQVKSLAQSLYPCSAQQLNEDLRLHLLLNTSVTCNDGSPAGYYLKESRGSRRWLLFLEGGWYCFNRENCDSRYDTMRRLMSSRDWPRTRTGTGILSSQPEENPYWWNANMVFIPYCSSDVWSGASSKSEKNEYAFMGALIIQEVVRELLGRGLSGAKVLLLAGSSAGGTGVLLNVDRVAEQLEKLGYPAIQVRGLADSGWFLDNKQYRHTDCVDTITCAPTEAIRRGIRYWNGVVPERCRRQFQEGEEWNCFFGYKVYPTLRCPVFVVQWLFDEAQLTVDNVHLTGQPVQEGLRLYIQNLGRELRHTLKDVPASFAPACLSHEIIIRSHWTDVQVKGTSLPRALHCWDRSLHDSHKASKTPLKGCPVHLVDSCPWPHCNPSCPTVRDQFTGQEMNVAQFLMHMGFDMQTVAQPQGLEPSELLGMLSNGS
Experimental: Plasmid containing human notum pectinacetyltransferase in pcDNA3.1(+) vector was transfected into HEK293 cells and clones were selecting by growing in presence of 400 ug/mL of G418. […] L cells overexpressing and secreting Wnt3a into the conditioned media were purchased from ATCC.
The assay protocol was as follows. […] The cell growth medium consisted of DMEM with 10% Dialyzed FBS, 5 μg/ml Blasticidin (Invitrogen, R210-01), 0.1 mM NEAA, 25 mM HEPES and 1×GPS. Cells were then trypsinized by first rinsing with PBS, followed by addition of 5 mL of trypsin and incubation of plates at room temperature for two minutes. A total of 10 mL of assay media (Opti-MEM, plus 0.5% dialyzed FBS, 0.1 mM NEAA, 1 mM sodium pyruvate, 10 mM HEPES, 1×GPS) was then added per 15 cm plate. Cells were counted and suspended at 0.75 million cells per mL. […] After incubation of cells at 37° C. for 3 hours, 10 μL of 30 mM LiCl in assay medium was added per well, followed by incubation at 37° C. for another 3 hours. […] Ten μL of the Wnt3a/notum pentinacetyltransferase mixture was then transferred from Greiner plates to each well of the 384-well plates containing the CellSensor cells. After incubation of cells overnight at 37° C., reactions were developed by addition of […] of 1×CCF4 (Invitrogen, Catalogue number K1085) to each well, covering the entire 384-well plate, and gentle rocking in the dark at room temperature for 3 hours.

[2] = molecular target: T1, human notum pectinacetyltransferase; assay: Binding assay (OPTS esterase substrate, fluorimetric); type: biochemical; conditions: OPTS substrate 5 μM
Experimental: Plasmid containing human notum pectinacetyltransferase in pcDNA3.1(+) vector was transfected into HEK293 cells and clones were selecting by growing in presence of 400 ug/mL of G418. Condition media from these cells was used for the assay.

SMILES | EC50 [1] [nM] | IC50 [2] [nM]
Cc1sc2ncnc(SCC(=O)NS(C)(=O)=O)c2c1Cl [2-((5-chloro-6-methylthieno[2,3-d]pyrimidin-4-yl)thio)-N-(methylsulfonyl)acetamide] | < 1000 | –
Cc1c(C(C)C)sc2ncnc(SCC(=O)O)c12 [2-((6-isopropyl-5-methylthieno[2,3-d]pyrimidin-4-yl)thio)acetic acid] | – | < 50
Cc1sc2ncnc(SCC(=O)N(C)CC(=O)O)c2c1Cl [2-(2-((5-chloro-6-methylthieno[2,3-d]pyrimidin-4-yl)thio)-N-methylacetamido)acetic acid] | < 1000 | –
Cc1csc2c(SCC(=O)O)ncnc12 [2-((7-methylthieno[3,2-d]pyrimidin-4-yl)thio)acetic acid] | < 15000 | < 250
Cc1cc2c(SCC(=O)O)ncnc2s1 [2-((6-methylthieno[2,3-d]pyrimidin-4-yl)thio)acetic acid] | < 10000 | < 250
COC(=O)CSc1ncnc2c(C)c(C#N)sc12 [methyl 2-((6-cyano-7-methylthieno[3,2-d]pyrimidin-4-yl)thio)acetate] | < 1000 | –
Cc1ccc(S(=O)(=O)NC(=O)CSc2ncnc3sc(C)c(C)c23)nc1 [2-((5,6-dimethylthieno[2,3-d]pyrimidin-4-yl)thio)-N-((5-methylpyridin-2-yl)sulfonyl)acetamide] | – | < 100
Cc1c(Cl)sc2c(SCC(=O)NCc3cccs3)ncnc12 [2-((6-chloro-7-methylthieno[3,2-d]pyrimidin-4-yl)thio)-N-(thiophen-2-ylmethyl)acetamide] | < 1000 | –
Cc1c(Br)sc2c(SCC(=O)O)ncnc12 [2-((6-bromo-7-methylthieno[3,2-d]pyrimidin-4-yl)thio)acetic acid] | – | < 25
Cc1sc2ncnc(SCC(=O)N3CCC(C(N)=O)CC3)c2c1C [1-(2-((5,6-dimethylthieno[2,3-d]pyrimidin-4-yl)thio)acetyl)piperidine-4-carboxamide] | – | < 250
Cc1sc2ccnc(SCC(=O)O)c2c1Cl [2-((3-chloro-2-methylthieno[3,2-c]pyridin-4-yl)thio)acetic acid] | < 5000 | –
Cc1sc2c(SCC(=O)O)ncnc2c1C [2-((6,7-dimethylthieno[3,2-d]pyrimidin-4-yl)thio)acetic acid] | – | < 25
Cc1c(Cl)sc2ncnc(SCC(=O)O)c12 [2-((6-chloro-5-methylthieno[2,3-d]pyrimidin-4-yl)thio)acetic acid] | – | < 25
Cc1csc(CCNC(=O)CSc2ncnc3sc(C)c(Cl)c23)n1 [2-((5-chloro-6-methylthieno[2,3-d]pyrimidin-4-yl)thio)-N-(2-(4-methylthiazol-2-yl)ethyl)acetamide] | – | < 25
COc1cc2c(cc1OC)CN(C(=O)CSc1ncnc3sc(C)c(C)c13)C2 [1-(5,6-dimethoxyisoindolin-2-yl)-2-((5,6-dimethylthieno[2,3-d]pyrimidin-4-yl)thio)ethanone] | – | < 25
Cc1c(C#N)sc2c(SCC(=O)O)ncnc12 [2-((6-cyano-7-methylthieno[3,2-d]pyrimidin-4-yl)thio)acetic acid] | < 1000 | –
Cc1sc2ncnc(SCC(=O)NCc3cccs3)c2c1C [2-((5,6-dimethylthieno[2,3-d]pyrimidin-4-yl)thio)-N-(thiophen-2-ylmethyl)acetamide] | – | < 100
COC(=O)CSc1ncnc2sc(C3CC3)c(C)c12 [methyl 2-((6-cyclopropyl-5-methylthieno[2,3-d]pyrimidin-4-yl)thio)acetate] | – | < 25
Cc1c(Cl)sc2c(SCC(=O)NCCN3CCCCC3)ncnc12 [2-((6-chloro-7-methylthieno[3,2-d]pyrimidin-4-yl)thio)-N-(2-(piperidin-1-yl)ethyl)acetamide] | < 1000 | –
Cc1csc2ncnc(SCC(=O)O)c12 [2-((5-methylthieno[2,3-d]pyrimidin-4-yl)thio)acetic acid] | – | < 100
Cc1sc2ncnc(SCC(=O)NS(=O)(=O)C3CC3)c2c1C [N-(cyclopropylsulfonyl)-2-((5,6-dimethylthieno[2,3-d]pyrimidin-4-yl)thio)acetamide] | – | < 25
Cc1sc2ncnc(SCC(=O)Nc3ccccc3F)c2c1C [2-((5,6-dimethylthieno[2,3-d]pyrimidin-4-yl)thio)-N-(2-fluorophenyl)acetamide] | – | < 25
CCc1sc2ncnc(SCC(=O)O)c2c1C [2-((6-ethyl-5-methylthieno[2,3-d]pyrimidin-4-yl)thio)acetic acid] | – | < 25
Cc1sc2ncnc(SCC(=O)NC(C)CO)c2c1Cl (centres unmarked) [2-((5-chloro-6-methylthieno[2,3-d]pyrimidin-4-yl)thio)-N-(1-hydroxypropan-2-yl)acetamide] | < 5000 | –
CCS(=O)(=O)NC(=O)CSc1ncnc2sc(C)c(C)c12 [2-((5,6-dimethylthieno[2,3-d]pyrimidin-4-yl)thio)-N-(ethylsulfonyl)acetamide] | – | < 25
Cc1sc2ncnc(SCC(=O)NCc3cccs3)c2c1Cl [2-((5-chloro-6-methylthieno[2,3-d]pyrimidin-4-yl)thio)-N-(thiophen-2-ylmethyl)acetamide] | – | < 25
COC(=O)CSc1ncnc2sc(C)c(C3CC3)c12 [methyl 2-((5-cyclopropyl-6-methylthieno[2,3-d]pyrimidin-4-yl)thio)acetate] | – | < 25
Cc1sc2ncnc(SCC(=O)NCc3ccco3)c2c1C [2-((5,6-dimethylthieno[2,3-d]pyrimidin-4-yl)thio)-N-(furan-2-ylmethyl)acetamide] | – | < 25
Cc1c(C2CC2)sc2ncnc(SCC(=O)O)c12 [2-((6-cyclopropyl-5-methylthieno[2,3-d]pyrimidin-4-yl)thio)acetic acid] | < 5000 | –

The next lines start with the values.

EC50 [1] [nM] | IC50 [2] [nM] | SMILES
< 1000 | < 25 | Cc1sc2ncnc(SCC(=O)NCc3ccco3)c2c1Cl [2-((5-chloro-6-methylthieno[2,3-d]pyrimidin-4-yl)thio)-N-(furan-2-ylmethyl)acetamide]
< 1000 | < 25 | Cc1c(Cl)sc2c(SCC(=O)NCCC#N)ncnc12 [2-((6-chloro-7-methylthieno[3,2-d]pyrimidin-4-yl)thio)-N-(2-cyanoethyl)acetamide]
– | < 25 | COC(=O)CSc1ncnc2c(C3CC3)c(Cl)sc12 [methyl 2-((6-chloro-7-cyclopropylthieno[3,2-d]pyrimidin-4-yl)thio)acetate]
< 1000 | < 25 | CCCCOC(=O)CSc1ncnc2sc(C)c(C)c12 [butyl 2-((5,6-dimethylthieno[2,3-d]pyrimidin-4-yl)thio)acetate]
< 1000 | < 25 | Cc1sc2ncnc(SCC(N)=O)c2c1C [2-((5,6-dimethylthieno[2,3-d]pyrimidin-4-yl)thio)acetamide]
< 1000 | < 25 | Cc1sc2ncnc(SCC(=O)NOC3CCCCO3)c2c1C (centres unmarked) [2-((5,6-dimethylthieno[2,3-d]pyrimidin-4-yl)thio)-N-((tetrahydro-2H-pyran-2-yl)oxy)acetamide]
< 1000 | < 25 | Cc1sc2ncnc(SCC(=O)N(C)C)c2c1Cl [2-((5-chloro-6-methylthieno[2,3-d]pyrimidin-4-yl)thio)-N,N-dimethylacetamide]
< 1000 | < 25 | CON(C)C(=O)CSc1ncnc2sc(C)c(C)c12 [2-((5,6-dimethylthieno[2,3-d]pyrimidin-4-yl)thio)-N-methoxy-N-methylacetamide]
– | < 25 | Cc1sc2ncnc(SCC(=O)NCCc3c[nH]cn3)c2c1Cl [N-(2-(1H-imidazol-4-yl)ethyl)-2-((5-chloro-6-methylthieno[2,3-d]pyrimidin-4-yl)thio)acetamide]
– | < 25 | Cc1sc2ncnc(SCC(=O)Nc3n[nH]c4cccc(Cl)c34)c2c1C [N-(4-chloro-1H-indazol-3-yl)-2-((5,6-dimethylthieno[2,3-d]pyrimidin-4-yl)thio)acetamide]
– | < 25 | CCCNC(=O)CSc1ncnc2sc(C)c(Cl)c12 [2-((5-chloro-6-methylthieno[2,3-d]pyrimidin-4-yl)thio)-N-propylacetamide]
– | < 25 | Cc1sc2ncnc(SCC(=O)NCc3ccncc3)c2c1Cl [2-((5-chloro-6-methylthieno[2,3-d]pyrimidin-4-yl)thio)-N-(pyridin-4-ylmethyl)acetamide]
